Data reported in patent US6262095A, “Use of tricyclic derivatives of 1,4-dihydro-1,4-dioxo-1H-naphthalene, novel compounds obtained and their application in theraphy” (Laboratoire Innothera, priority 1995, dated 2001).
Read-outs that look alike come from different tables or passages of the source.

Tests used:
[1] = tested on: saphenous vein in rabbits; experiment: Contractile effect on the rabbit saphenous vein precontracted by a depolarizing physiological solution (K+ 40 mM); assay type: cell-based; details: precontracted with 40 mM potassium; for EC50: read-out: ED50 (the source's name)
Method: The contractile effects are measured in vitro under static conditions on vascular capacitance or resistance rings of saphenous, femoral, jugular, mesenteric, and caval veins . . . and on femoral, carotid, basilar, or mesenteric arteries, as well as the thoracic or abdominal aorta . . . in rats (Wistar, 200-250 g), rabbits (New Zealand, 2-2.5 kg), guinea pigs (Dunkin Hartley 250-300 g).
The rings are placed in a chamber for isolated organs (25 mL for capacitance vessels and 2.5 mL for resistance vessels according to Mulvany), and maintained under isometric conditions using two rigid threads inserted inside the vessel, avoiding causing damage to the endothelium. The vessels are bathed in a modified Krebs solution (in mM: NaCl=118; KCl=4.6; CaCl2 =2.5; MgSO4 =1.2; KH2 PO4 =1.17; NaHCO3 =25; glucose=11), continuously aerated using a gaseous mixture of 95% O2 and 5% Co2, at a pH=7.4, and regulated by thermostat at 37° C. The rings are adjusted to their optimal point as far as the tension-length relationship is concerned. The tensions developed generate an electrical signal through the intermediary of a force sensor (Wheatstone bridge). […] The pharmacological studies are carried out after a few standardized preliminary contractile stimulations using a depolarizing solution (hyperpotassic type obtained by replacing NaCl with KCl in equimolar quantities), along with rinsings and periods of equilibration in a pure physiological solution. The presence of endothelium is verified by the relaxation induced by increasing the concentration of acetylcholine after the stabilization of a vascular precontraction.
The forces of contraction developed by the vascular rings in response to the different compounds are studied on quiescent or electrically stimulated vessels (5-8 Hz), by a "physiological" depolarizing hyperpotassic solution (KCl: 20, 40 mM), by noradrenaline (increasing concentrations), [and by] serotonin (increasing concentrations).
The contractions are expressed in mg force or as a percentage of the maximum contraction at the time of the depolarization with a "physiological" hyperpotassic solution.
The contractile effect of different compounds on the saphenous vein in rabbits, precontracted by a depolarizing "physiological" solution with a potassium concentration of 40 mM, is given as an illustration; the maximum effect produced by each compound is expressed as a percentage of the maximum contraction induced by depolarizing hyperpotassic solutions and as value of ED50): […]

mice = experiment: Single oral administration toxicity in mice; assay type: in vivo, mouse
Text: Moreover, the compounds of the invention and their possible salts have a very low toxicity.

[2] = tested on: hyperpermeability induced by zymosan in rats; experiment: Inflammatory hyperpermeability induced by zymosan in rats; assay type: in vivo, rat (Wistar); details: rat, oral
Method: The vascular permeability is studied in vivo by measuring the extravasation of albumin, the quantity of which is determined using an albumin-binding dye (Evans blue).
The hyperpermeability is induced by the intradermal injection of a solution of histamine, bradykinin, or zymosan.
The abdominal walls of the rats (Wistar, 200-230 g) are shorn 1 h before the start of the experiment. The product to be tested is injected by the intraperitoneal route or orally 1-4 h before the sacrifice. The rats are anesthetized with a halothane mixture. They then receive an intradermal injection in their abdomen of 0.10 or 0.15 mL (or for histamine 6.7 or […]) of inflammatory agent and an intravenous injection of 1 mL of 0.5% Evans blue solution in the vein of the penis. These injections are carried out 30 min before the sacrificing.
30 min after these two injections, the rats are sacrificed by cervical dislocation.
At the site of the injection of the inflammatory agent, the skin is cut and placed into glass tubes with a ground[-glass] neck containing 3 mL of fuming hydrochloric acid. […] After allowing the preparation to stand for 30 min, 7 mL of dichloromethane are added. The tubes are periodically agitated for 1 h. The aqueous phase is eliminated by aspiration, and the organic "dichloromethane" phase is filtered. The optical densities are quantified by absorption spectrophotometry at a wavelength of 620 nm, against a blank [control] containing only dichloromethane. The averages of the optical densities of the different lots of treated or control animals are calculated, then a percentage of variation of the values corresponding to the treated [experimental] animals compared to those of the control animals is calculated.

[3] = tested on: capillary resistance of rats; experiment: Capillary resistance of rats after oral administration (petechial index); assay type: in vivo, rat (Wistar); details: rat
Method: The increase in the capillary resistance is evaluated by the modification of the petechial index (negative pressure inducing the extravasation of the erythrocytes), measured by a method derived from the angiosterrometer of Parrot.
The studies are carried out on male Wistar rats with an average weight of 200 g (approximate age six weeks). The bottom area of the back is shorn, then the hair is pulled by means of a paste based on a derivative of thioglycolic acid and calcium hydroxide. After approximately 30 min, the skin is abundantly rinsed and dried.
On the day of the study, the rats are maintained without constraint. A low pressure of 80 mm of mercury is applied. If the petechiae (extravasation of erythrocytes) have not appeared within 15 sec, the low pressure is increased as a countermeasure, keeping the suction cap at the same place.
The minimum low pressure where petechias appear, in mm of mercury, expresses the basal capillary resistance (before any treatment). Two measurements are made for each test at different sites on of the back.
The rats are treated by the oral route. […] All the measurements are done in the blind mode.
A percentage of variation in the capillary resistances of the animals treated compared to their basal capillary resistance is calculated for each compound studied, at each treatment time and compared with the control group (excipient only) or the reference group.

[4] = Oryctolagus cuniculus, % of maximum contraction induced by hyperpotassic solutions
[5] = single oral administration of 500 mg/kg
[6] = 0.1 mg/kg, ** granulometry: 0.6-0.7 mm

| Compound | Emax [1, 4] | EC50 ([1]; Oryctolagus cuniculus) | Zymosan-induced hyperpermeability, effect after 2 h ([2]; 0.1 mg/kg) | Zymosan-induced hyperpermeability, effect after 4 h ([2]; 0.1 mg/kg) | also measured |
| --- | --- | --- | --- | --- | --- |
| O=C1c2ccccc2C(=O)c2sc(-c3cccc(F)c3)nc21 [Example 13, 4,9-Dihydro-4,9-dioxo-2-(3-fluorophenyl)-naphtho[2,3-d]thiazole] | 21 ± 3% | 57 nM | – | – | toxic effect and mortality (mice; single oral administration, 1 g/kg): no observable toxic effect and no mortality |
| O=C1c2ccccc2C(=O)c2sc(-c3ccccn3)nc21 [Example k, 4,9-Dihydro-4,9-dioxo-2-(2-pyridyl)-naphtho[2,3-d]thiazole] | 26 ± 9% | 70 nM | – | – | – |
| O=C1c2ccccc2C(=O)c2sc(-c3ccncc3)nc21.O=S(=O)(O)O [Example 17, 4,9-Dihydro-4,9-dioxo-2-(4-pyridyl)-naphtho[2,3-d]thiazole sulfate] | – | – | -15 % of the control | -23 % of the control | – |
| O=C1c2ccccc2C(=O)c2sc(-c3ccc(F)cc3F)nc21 [Example 15, 2-(2,4-Difluorophenyl)-4,9-dihydro-4,9-dioxo-naphtho[2,3-d]thiazole] | – | – | – | – | Increase of capillary resistance, effects after 4 h ([3]; 0.1 mg/kg): 20 % of the control; Increase of capillary resistance, effect after 6 h ([3]; 0.1 mg/kg): 27 % of the control |
| O=C1c2ccccc2C(=O)c2sc(-c3ccoc3)nc21 [Example 18, 4,9-Dihydro-4,9-dioxo-2-(3-furyl)naphtho[2,3-d]thiazole] | 39 ± 6% | 88 nM | – | – | Increase of capillary resistance, effects after 4 h ([3]; 5 mg/kg): 25 % of the control; Increase of capillary resistance, effect after 6 h ([3]; 5 mg/kg): 28 % of the control |
| O=C1c2ccccc2C(=O)c2[nH]c(-c3ccccc3F)nc21 [Example 2, 4,9-Dihydro-4,9-dioxo-2-(2-fluorophenyl)-1H-naphtho[2,3-d]imidazole] | – | – | – | – | Increase of capillary resistance, effects after 4 h ([3]; 0.1 mg/kg): 25 % of the control; Increase of capillary resistance, effect after 6 h ([3]; 0.1 mg/kg): 28 % of the control |
| O=C1c2ccccc2C(=O)c2oc(-c3ccc(F)cc3)nc21 [Example 5, 4,9-Dihydro-4,9-dioxo-2-(4-fluorophenyl)-naphtho[2,3-d]oxazole] | – | – | – | – | toxic effect and mortality (mice; [5]): no observable toxic effect and no mortality |
| O=C1c2ccccc2C(=O)c2sc(-n3cccc3)nc21 [Example 28, 4,9-Dihydro-4,9-dioxo-2-(1-pyrrolyl)-naphtho-[2,3]-thiazole] | 29 ± 2% | 37 nM | – | – | Increase of capillary resistance, effects after 4 h [3, 6]: 10 % of the control; Increase of capillary resistance, effect after 6 h [3, 6]: 13 % of the control; Zymosan-induced hyperpermeability, effect after 2 h ([2]; 5 mg/kg): -29 % of the control; Zymosan-induced hyperpermeability, effect after 4 h ([2]; 5 mg/kg): 0 % of the control |
| COc1ccc2c(c1)C(=O)c1nc(-c3ccccc3)sc1C2=O [Example 26, 4,9-Dihydro-4,9-dioxo-6-methoxy-2-phenylnaphtho[2,3-d]thiazole] | – | – | -14 % of the control | -24 % of the control | – |
| Cc1ccccc1-c1nc2c(o1)C(=O)c1ccccc1C2=O [Example 6, 4,9-Dihydro-4,9-dioxo-2-(2-methylphenyl)-naphtho[2,3-d]oxazole] | – | – | – | – | toxic effect and mortality (mice; [5]): no observable toxic effect and no mortality |
| COc1ccc2c(c1)C(=O)c1sc(-c3ccccc3)nc1C2=O [Example 25, 4,9-Dihydro-4,9-dioxo-7-methoxy-2-phenylnaphtho[2,3-d]thiazole] | – | – | -14 % of the control | -17 % of the control | – |
| COc1ccc2c(c1)C(=O)c1sc(-c3ccco3)nc1C2=O [Example 59, 4,9-Dihydro-4,9-dioxo-2-(2-furyl)-7-methoxynaphtho-[2,3-d]thiazole] | 18 ± 4% | 53 nM | -13 % of the control | +21 % of the control | – |
| Cc1nc2c(n1C)C(=O)c1ccccc1C2=O.O=S(=O)(O)O [Example 1, 4,9-Dihydro-4,9-dioxo-1,2-dimethyl-1H-naphtho[2,3-d]imidazole sulfate] | – | – | – | – | Increase of capillary resistance, effects after 4 h ([3]; 0.1 mg/kg): 37 % of the control; Increase of capillary resistance, effect after 6 h ([3]; 0.1 mg/kg): 35 % of the control; Zymosan-induced hyperpermeability, effect after 2 h ([2]; 5 mg/kg): -28 % of the control; Zymosan-induced hyperpermeability, effect after 4 h ([2]; 5 mg/kg): -28 % of the control |
| Nc1nc2c(s1)C(=O)c1ccccc1C2=O [Example i, 2-Amino-4,9-dihydro-4,9-dioxonaphtho[2,3-d]thiazole] | 18 ± 1% | 90 nM | – | – | – |
| 4,9-Dihydro-4,9-dioxo-2-(2-furyl)-5-hydroxynaphtho-[2,3-d]thiazole or 4,9-Dihydro-4,9-dioxo-2-(2-furyl)-8-hydroxynaphtho-[2,3-d]thiazole [Example 57] | – | – | – | – | Emax (% maximum contraction) ([1]; % of maximum contraction induced by hyperpotassic solutions): 22±3 % maximum contraction; EC50 [1]: 41 nM |
| Cc1ccc(-c2nc3c(s2)C(=O)c2ccccc2C3=O)o1 [Example 38, 4,9-Dihydro-4,9-dioxo-2-(5-methyl-2-furyl)naphtho-[2,3-d]thiazole] | 12 ± 1% | 160 nM | -12 % of the control | -3 % of the control | – |
| Cc1cccc(-c2nc3c(o2)C(=O)c2ccccc2C3=O)c1 [Example 7, 4,9-Dihydro-4,9-dioxo-2-(3-methylphenyl)-naphtho[2,3-d]oxazole] | 17 ± 2% | 36 nM | – | – | – |
| O=C1c2ccccc2C(=O)c2sc(-c3ccc(Cl)o3)nc21 [Example 19, 2-(5-Chloro-furan-2-yl)-4,9-dihydro-4,9-dioxo-naphtho[2,3-d]thiazole] | 20 ± 8% | 75 nM | – | – | – |
| O=C1c2ccccc2C(=O)c2oc(-c3ccc(Cl)cc3)nc21 [Example 10, 2-(4-Chlorophenyl)-4,9-dihydro-4,9-dioxo-naphtho[2,3-d]oxazole] | – | – | – | – | Increase of capillary resistance, effects after 4 h ([3]; 0.1 mg/kg): 25 % of the control; Increase of capillary resistance, effect after 6 h ([3]; 0.1 mg/kg): 46 % of the control |
| O=C1c2ccccc2C(=O)c2sc(-c3ccc(F)cc3)nc21 [Example 14, 4,9-Dihydro-4,9-dioxo-2-(4-fluorophenyl)naphtho[2,3-d]thiazole] | – | – | -31 % of the control | -15 % of the control | – |
